Molecules are shown by their SMILES. Bounds are passed on as bounds.

The target in this experiment is T1, human MC5R (hMC5R) (Homo sapiens, UniProt P33032).
T1 construct: purchased Perkin Elmer RBXMC5M400UA
T1 sequence (P33032 whole entry): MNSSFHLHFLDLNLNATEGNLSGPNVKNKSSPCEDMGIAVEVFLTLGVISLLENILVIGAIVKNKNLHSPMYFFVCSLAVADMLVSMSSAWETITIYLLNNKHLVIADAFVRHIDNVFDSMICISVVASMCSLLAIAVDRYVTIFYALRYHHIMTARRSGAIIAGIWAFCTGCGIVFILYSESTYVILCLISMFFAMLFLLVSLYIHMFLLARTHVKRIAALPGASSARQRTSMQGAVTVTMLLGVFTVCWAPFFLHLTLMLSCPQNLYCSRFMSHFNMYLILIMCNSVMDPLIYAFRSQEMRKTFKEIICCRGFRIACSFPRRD
The experiment can be described thus: Human MC5R radioligand binding assay (membranes, [125I] NDP-MSH displacement). The note with it: hMC5R binding; tested as trifluoroacetate or hydrochloride salts, or free bases; read-out: MC5R radioligand IC50. An outline of the steps: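 Displacement of [125I]NDP-MSH (radioiodinated in house, HPLC-purified) from hMC5R membranes by test compound measured after 1 hr incubation at 37° C.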
Regarding `NC[C@@H]1N[C@H](CNC(=O)c2ccc3ccccc3c2)CCN(CC(c2ccccc2)c2ccccc2)C1=O` [Compound 271, N-(((3S,5S)-3-(aminomethyl)-1-(2,2-diphenylethyl)-2-oxo-1,4-diazepan-5-yl)methyl)-2-naphthamide], the IC50 was below 1000 nM. The value for `O=C(NC[C@@H]1CCN(CC(c2ccccc2)c2ccccc2)C(=O)[C@H](CN2CCCCC2)N1)c1ccc2ccccc2c1` [Compound 275, N-(((3S,5S)-1-(2,2-diphenylethyl)-2-oxo-3-(piperidin-1-ylmethyl)-1,4-diazepan-5-yl)methyl)-2-naphthamide] was below 100 nM; that for `NCC[C@@H]1N[C@H](CNC(=O)C=Cc2ccccc2)CCN(CC(c2ccccc2)c2ccccc2)C1=O` [Compound 279, N-(((3S,5S)-3-(2-aminoethyl)-1-(2,2-diphenylethyl)-2-oxo-1,4-diazepan-5-yl)methyl)cinnamamide] was below 1000 nM. With `O=C(C=Cc1ccccc1)NC[C@@H]1CCN(CC(c2ccccc2)c2ccccc2)C(=O)[C@H](CCN2CCCCC2)N1` [Compound 283, N-(((3S,5S)-1-(2,2-diphenylethyl)-2-oxo-3-(2-(piperidin-1-yl)ethyl)-1,4-diazepan-5-yl)methyl)cinnamamide], the IC50 is below 100 nM. Consider `O=C(/C=C/c1ccc(F)cc1)NC[C@@H]1CCN(CC(c2ccccc2)c2ccccc2)C(=O)[C@H](CCN2CCCCC2)N1` [Compound 284, (E)-N-(((3S,5S)-1-(2,2-diphenylethyl)-2-oxo-3-(2-(piperidin-1-yl)ethyl)-1,4-diazepan-5-yl)methyl)-3-(4-fluorophenyl)acrylamide], for which the IC50 was below 10 nM. The figure for `Cc1ccc(/C=C/C(=O)NC[C@@H]2CCN(CC(c3ccccc3)c3ccccc3)C(=O)[C@H](CCN3CCCCC3)N2)cc1` [Compound 285, (E)-N-(((3S,5S)-1-(2,2-diphenylethyl)-2-oxo-3-(2-(piperidin-1-yl)ethyl)-1,4-diazepan-5-yl)methyl)-3-p-tolylacrylamide] is below 100 nM; for `Cc1cc(C)cc(CN2CC[C@@H](CNC(=O)c3ccc4ccccc4c3)N[C@@H](CCCNC(=N)N)C2=O)c1` [Compound 286, N-(((3S,5S)-1-(3,5-dimethylbenzyl)-3-(3-guanidinopropyl)-2-oxo-1,4-diazepan-5-yl)methyl)-2-naphthamide] it is below 1000 nM. The value for `N=C(N)NCCC[C@@H]1N[C@H](CNC(=O)c2ccc3ccccc3c2)CCN(C[C@@H](NC(=O)c2ccccc2)c2ccccc2)C1=O` [Compound 287, N-(((3S,5S)-1-((S)-2-benzamido-2-phenylethyl)-3-(3-guanidinopropyl)-2-oxo-1,4-diazepan-5-yl)methyl)-2-naphthamide] was below 1000 nM; that for `N=C(N)NCCC[C@@H]1N[C@H](CNC(=O)c2ccc3ccccc3c2)CCN(C[C@H](NC(=O)c2ccccc2)c2ccccc2)C1=O` [Compound 288, N-(((3S,5S)-1-((R)-2-benzamido-2-phenylethyl)-3-(3-guanidinopropyl)-2-oxo-1,4-diazepan-5-yl)methyl)-2-naphthamide] was below 10000 nM; that for `COC(CN1CC[C@@H](CNC(=O)c2ccc3ccccc3c2)N[C@@H](CCCNC(=N)N)C1=O)c1ccccc1` (stereo partly drawn) [Compound 289, N-(((3S,5S)-3-(3-guanidinopropyl)-1-(2-methoxy-2-phenylethyl)-2-oxo-1,4-diazepan-5-yl)methyl)-2-naphthamide] was below 1000 nM.

With `CCCOC(CN1CC[C@@H](CNC(=O)c2ccc3ccccc3c2)N[C@@H](CCCNC(=N)N)C1=O)c1ccccc1` (stereo partly drawn) [Compound 290, N-(((3S,5S)-3-(3-guanidinopropyl)-2-oxo-1-(2-phenyl-2-propoxyethyl)-1,4-diazepan-5-yl)methyl)-2-naphthamide], the IC50 is below 1000 nM. The figure for `N=C(N)NCCC[C@@H]1N[C@H](CNC(=O)c2ccc3ccccc3c2)CCN(CC(OCc2ccccc2)c2ccccc2)C1=O` (stereo partly drawn) [Compound 291, N-(((3S,5S)-1-(2-(benzyloxy)-2-phenylethyl)-3-(3-guanidinopropyl)-2-oxo-1,4-diazepan-5-yl)methyl)-2-naphthamide] is below 1000 nM; for `C=CCOC(CN1CC[C@@H](CNC(=O)c2ccc3ccccc3c2)N[C@@H](CCCNC(=N)N)C1=O)c1ccccc1` (stereo partly drawn) [Compound 292, N-(((3S,5S)-1-(2-(allyloxy)-2-phenylethyl)-3-(3-guanidinopropyl)-2-oxo-1,4-diazepan-5-yl)methyl)-2-naphthamide] it is below 1000 nM; for `CC(=O)NCCC[C@@H]1N[C@H](CNC(=O)/C=C/c2ccc(C)cc2)CCN(CC(c2ccccc2)c2ccccc2)C1=O` [Compound 293, (E)-N-(((3S,5S)-3-(3-acetamidopropyl)-1-(2,2-diphenylethyl)-2-oxo-1,4-diazepan-5-yl)methyl)-3-p-tolylacrylamide] it is below 1000 nM.

Consider `Cc1ccc(/C=C/C(=O)NC[C@@H]2CCN(CC(c3ccccc3)c3ccccc3)C(=O)[C@H](CCCNC(=O)C3CCCCC3)N2)cc1` [Compound 294, N-(3-((2S,7S)-4-(2,2-diphenylethyl)-3-oxo-7-(((E)-3-p-tolylacrylamido)methyl)-1,4-diazepan-2-yl)propyl)cyclohexanecarboxamide], for which the IC50 is below 1000 nM. The figure for `N=C(N)NCCC[C@@H]1N[C@H](CNC(=O)c2ccc3ccccc3c2)CCN(CC(Oc2ccccc2)c2ccccc2)C1=O` (stereo partly drawn) [Compound 295, N-(((3S,5S)-3-(3-guanidinopropyl)-2-oxo-1-(2-phenoxy-2-phenylethyl)-1,4-diazepan-5-yl)methyl)-2-naphthamide] is below 100 nM; for `CCOC(=O)C(CN1CC[C@@H](CNC(=O)c2ccc3ccccc3c2)N[C@@H](CCCNC(=N)N)C1=O)c1ccccc1` (stereo partly drawn) [Compound 296, ethyl 3-((3S,5S)-5-((2-naphthamido)methyl)-3-(3-guanidinopropyl)-2-oxo-1,4-diazepan-1-yl)-2-phenylpropanoate] it is below 1000 nM; for `CCC(CC)CN1CC[C@@H](CNC(=O)c2ccc3ccccc3c2)N[C@@H](CCCNC(=N)N)C1=O` [Compound 297, N-(((3S,5S)-1-(2-ethylbutyl)-3-(3-guanidinopropyl)-2-oxo-1,4-diazepan-5-yl)methyl)-2-naphthamide] it is below 1000 nM.

For `CC1CC(C)CC(CN2CC[C@@H](CNC(=O)c3ccc4ccccc4c3)N[C@@H](CCCNC(=N)N)C2=O)C1` (stereo partly drawn) [Compound 298, N-(((3S,5S)-1-((3,5-dimethylcyclohexyl)methyl)-3-(3-guanidinopropyl)-2-oxo-1,4-diazepan-5-yl)methyl)-2-naphthamide], the IC50 was below 100 nM.

In the case of `NCC[C@@H]1N[C@H](CCNC(=O)c2ccc3ccccc3c2)CCN(CC(c2ccccc2)c2ccccc2)C1=O` [Compound 303, N-(2-((3S,5R)-1-(2,2-diphenylethyl)-2-oxo-3-(2-aminoethyl)-1,4-diazepan-5-yl)ethyl)-2-naphthamide], the IC50 was below 1000 nM. In the case of `O=C(NCC[C@@H]1CCN(CC(c2ccccc2)c2ccccc2)C(=O)[C@H](CCN2CCCCC2)N1)c1ccc2ccccc2c1` [Compound 306, N-(2-((3S,5R)-1-(2,2-diphenylethyl)-2-oxo-3-(2-(piperidin-1-yl)ethyl)-1,4-diazepan-5-yl)ethyl)-2-naphthamide], the IC50 is below 1000 nM.

By IC50 is commonly meant the concentration needed to halve the response being measured.

Values taken from patent US8008291B2 (Mimetica Pty Ltd, priority 2008, dated 2011).
